Several values for one entry are separate records, joined by “and”; a condition that tells them apart may be missing. Equal values may be shown once. Inconclusive results are not listed. Activity calls are given as the source filed them.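 Rule for the calls: active = fitted half-maximal concentration of signal decrease at or below twice the sample's top tested concentration; inconclusive = flat curve between -70 and -30 percent, or poor fit; inactive = flat within 30 percent, signal rise, or potency above limit.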
Each molecule was assayed against T. gondii ME49Luc in IFN-y HeLa, luciferase, 72 h (assay: inhibitors of Toxoplasma growth in IFN-γ-primed HeLa – cell-based, ME49Luc, luciferase, 72 h, dose response (AID 1259418)).

Row | SMILES | AC50
1 | N#Cc1cccc(-c2ccc3c(c2)[C@@H]2[C@@H](CCN2C(=O)c2ccccc2F)[C@@H](CO)N3)c1 | 23.3 µM
2 | COc1cccc(NC(=O)N2CC(=O)N3[C@H](CO)[C@@H](c4ccc(C#CCC5CCCC5)cc4)[C@@H]3C2)c1 | 11.9 µM and 9.9 µM
3 | O=C(Cc1ccncc1)N1CCCCN2[C@H](CO)[C@H](c3ccc(C#Cc4ccccc4F)cc3)[C@H]2C1 | 20 µM
4 | CCOC(=O)Cn1c(C)c(CN2CCCC2c2cc(C(C)C)no2)c2ccccc21 (stereo not drawn) | 15.5 µM
5 | CCCCC(=O)N1CCC2(CC1)Nc1ccc(Cl)cc1-n1cccc12 | > 39 µM (inactive)
6 | CCc1c(C)sc2c1CCN(Cc1nc(-c3cccc(C)c3)oc1C)C2c1ccccc1 (stereo not drawn) | 9.68 µM
7 | COc1ccc(-c2nc(Nc3ccc(C)cc3)c3ccccc3n2)cc1 | 19.1 µM
8 | COc1ccc(-c2ccc([C@H]3[C@H]4CN(Cc5ccccc5)CC(=O)N4[C@H]3CO)cc2)cc1 | 21 µM
9 | N#Cc1cccc(-c2ccc(C3[C@@H]4CN(C(=O)Nc5ccc(C(F)(F)F)cc5)C[C@H]3N4)cc2)c1 (stereo partly drawn) | 5.28 µM
10 | CCOc1ccc(N(Cc2nc(-c3ccc(C)cc3)oc2C)S(=O)(=O)c2ccccc2)cc1 | > 39 µM (inactive)
11 | COc1ccc(-c2nc(CN(c3ccccc3OC)S(=O)(=O)c3ccccc3)c(C)o2)cc1 | 7.78 µM
12 | CN1C(=O)CCc2cc(NC(=O)Cc3ccc(Cl)cc3)ccc21 | 23.8 µM
13 | Cc1cccc(-c2ccc(C3[C@@H]4CN(Cc5cccc(F)c5)C[C@H]3N4)cc2)c1 (stereo partly drawn) | 26.2 µM
14 | COc1ccc(-c2nc(Cn3nnc(-c4nc(-c5ccc(OC)c(OC)c5)no4)c3C)c(C)o2)cc1 | 20.6 µM
15 | CCCNC(=O)N1CC(=O)N2[C@@H](CO)[C@@H](c3ccc(C#Cc4cccc(OC)c4)cc3)[C@@H]2C1 | 19.2 µM
16 | COc1cccc(NC(=O)N2CCN(Cc3nc(-c4ccc(C)cc4)oc3C)CC2)c1 | 22 µM
17 | CCOc1ccccc1N(Cc1nc(-c2ccc(OC)cc2)oc1C)S(=O)(=O)c1cccs1 | 7.45 µM
18 | Cc1ccccc1-c1ccc([C@H]2[C@@H](CO)N3CCCCN(S(=O)(=O)Cc4ccccc4)C[C@H]23)cc1 | 17.6 µM and 13.3 µM
19 | CCN(CC)c1nc(-c2ccc(OC)cc2)nc2ccccc12 | 15.7 µM
20 | COc1ccc(CNC2=NCCNC23CCN(S(=O)(=O)c2ccc(C)c(C)c2)CC3)cc1 | > 39 µM (inactive)
21 | CC(C)CNc1nc2c(cc1C(=O)NCC1CC1)CCN(c1ccncn1)CC2 | 19 µM
22 | NCCCCCCCCCCNS(=O)(=O)c1cccc2c(Cl)cccc12 | 21.2 µM
23 | O=C(CCC1N=C2c3ccccc3N=C(SCc3cccc(Cl)c3)N2C1=O)NCc1cccs1 (stereo not drawn) | 5.48 µM
24 | C(=C\c1ccc(C2[C@@H]3CN(Cc4ccc5c(c4)OCO5)C[C@H]2N3)cc1)/c1ccccc1 (stereo partly drawn) | 13.2 µM

Row | SMILES | AC50
25 | CC(C)Cc1ccc(S(=O)(=O)N2CCC3(CC2)NCCN=C3NC2CCCCC2)cc1 | 25.6 µM
26 | O=C1CCc2cc(NC(=O)c3cccc(C(F)(F)F)c3)ccc2N1 | 16.8 µM
27 | N#Cc1cccc(-c2ccc3c(c2)[C@@H]2[C@@H](CCN2S(=O)(=O)c2ccc(F)cc2)[C@H](CO)N3)c1 | 17.8 µM
28 | O=C1CCc2cc(S(=O)(=O)NCCc3ccccc3)cc3c2N1CCC3 | 14 µM
29 | CN(C)c1nc(N2CCCC2)nc2c1CCN(Cc1ccoc1)CC2 | 16 µM
30 | Cc1nc(CCNC(=O)[C@H]2CCCN2S(=O)(=O)c2ccccc2)cs1 | 32.3 µM
31 | OC[C@@H]1Nc2ccc(-c3cccc(F)c3)cc2[C@@H]2[C@H]1CCN2Cc1ccc(F)cc1 | 18.5 µM
32 | Cc1cccc(C(=O)Nc2c(C(=O)NCc3cccnc3)[nH]c3ccccc23)c1 | > 39 µM (inactive)
33 | COc1ccc(-c2nc(CN(c3ccccc3OC)S(=O)(=O)c3cccs3)c(C)o2)cc1 | 13.7 µM
34 | COc1ccc(S(=O)(=O)N(C)C[C@H]2Oc3c(NC(=O)c4nc5ccccc5s4)cccc3C(=O)N([C@@H](C)CO)C[C@H]2C)cc1 | 21.8 µM
35 | Cc1ccc(S(=O)(=O)N2CCC3(CC2)NCCN=C3NCc2ccc(F)c(Cl)c2)cc1C | 16.5 µM
36 | COc1cc([C@@H]2c3cc4c(cc3C(OC3O[C@@H]5COC(C)O[C@H]5[C@H](O)[C@H]3O)C3COC(=O)[C@@H]32)OCO4)cc(OC)c1O (stereo partly drawn) | > 39 µM (inactive)
37 | COc1cccc(CN2CCC3(COCc4cnc(-c5ccccc5)nc43)C2)c1 (stereo not drawn) | 17.4 µM
38 | CCCC#Cc1ccc([C@@H]2[C@H]3CN(C(=O)Nc4cccc(F)c4)CC(=O)N3[C@H]2CO)cc1 | 17.4 µM
39 | CC(C)Oc1ccc(NC(=O)c2nc3c(n2C(C)C)CCN(C(=O)c2ccccc2)C3)cc1 | 10.6 µM
40 | Cc1ccc(CSC2=Nc3ccccc3C3=NC(CCC(=O)NCc4ccc5c(c4)OCO5)C(=O)N23)c(C)c1 (stereo not drawn) | 27.2 µM
41 | O=C(Cc1ccncc1)N1CCCCN2[C@H](C1)[C@@H](c1ccc(C#Cc3ccccc3F)cc1)[C@@H]2CO | 5.02 µM
42 | Cc1nc(OCC(=O)NCc2ccc3c(c2)OCO3)c2ccccc2n1 | 21.2 µM
43 | COc1ccc(CNC(=O)COc2nc(C)nc3ccccc23)cc1 | > 39 µM (inactive)
44 | CC(C)CCN1Cc2c(C(=O)NC3CCCCC3)ncn2-c2ccccc2S1(=O)=O | 20.6 µM
45 | COc1ccccc1N(Cc1nc(-c2ccc(C)cc2)oc1C)S(=O)(=O)c1ccc(C)cc1 | 10.3 µM
46 | Cc1oc(-c2cccc(Cl)c2)nc1CN1CCN(C(=O)Nc2ccc(F)cc2)CC1 | 24.1 µM
47 | Cc1nc(-c2cc(S(=O)(=O)NCCCN3CCCC(C)C3)c(C)s2)sc1C (stereo not drawn) | 33.7 µM
48 | COc1ccc(S(=O)(=O)N2CSC[C@@H]2C(=O)NCCc2csc(-c3ccccc3)n2)cc1 | 17.6 µM

Row | SMILES | AC50
49 | COc1ccccc1C(=O)Nc1ccc(-c2nc(-c3cc(C)ccc3C)co2)cc1 | 5.13 µM
50 | COc1ccc(CNC(=O)CC2N=C3c4ccccc4N=C(SCc4ccc(C)cc4)N3C2=O)cc1 (stereo not drawn) | 19.4 µM
51 | COc1ccc(CNC2=NCCNC23CCN(S(=O)(=O)c2ccc(Cl)s2)CC3)cc1 | 3.91 µM
52 | COc1cccc(S(=O)(=O)N2CCCCN3[C@@H](CO)[C@@H](c4ccc(C#CCC(C)C)cc4)[C@@H]3C2)c1 | 4.66 µM and 5.61 µM and 2.22 µM
53 | COc1ccccc1C#Cc1ccc([C@H]2[C@H](CO)N3CCCCN(C(=O)C4CCC4)C[C@@H]23)cc1 | 13.5 µM and 5.77 µM
54 | COCCCN(Cc1ccco1)c1nc(-c2ccc(OC)cc2)nc2ccccc12 | 16.9 µM
55 | CCCc1cc(C2CCCN2C(=O)Cn2nc(C(F)(F)F)c3c2CCCC3)no1 (stereo not drawn) | 21.6 µM
56 | Cc1ccc(-c2csc(-c3cccn3CC(=O)NCCCN3CCCC(C)C3)n2)cc1 (stereo not drawn) | 17.2 µM
57 | Cc1ccsc1C(=O)N1CCc2nc(N3CCOCC3)nc(NC(C)C)c2C1 | > 39 µM (inactive)
58 | CN(C)C1CCN(Cc2cccc(C#N)c2)C(C(=O)O)C1 (stereo not drawn) | 9.32 µM
59 | Cc1ccc(-c2nc(Cn3c(=O)c4c(C)cc(C)nc4n(-c4ccccc4)c3=O)c(C)o2)cc1 | 30.9 µM
60 | CC(C)CC(=O)N1CCC2(CC1)Nc1cc(F)ccc1-n1cccc12 | > 39 µM (inactive)
61 | COc1cccc(S(=O)(=O)N2CCCCN3[C@H](C2)[C@@H](c2ccc(C#CCC(C)C)cc2)[C@@H]3CO)c1 | 15.3 µM
62 | O=S(=O)(c1ccc2c(c1)CCCC2)N1CCC2(CC1)NCCN=C2NCc1ccc(Cl)cc1 | 9.16 µM
63 | COc1ccccc1C(=O)Nc1ccc(-c2nc(-c3ccc(C)cc3C)co2)cc1 | 9.34 µM and 18.2 µM
64 | OC1(c2cccc(C(F)(F)F)c2)CCN(Cc2ccc3[nH]ccc3c2)CC1 | 33.5 µM
65 | O=C(CCc1ccccc1)N1CCC2(CC1)Nc1ccc(Cl)cc1-n1cccc12 | 27.4 µM
66 | CC(C)C#Cc1ccc([C@H]2[C@@H](C#N)N(C(=O)c3cccc(F)c3)[C@@H]2CO)cc1 | 22 µM
67 | O=C(Cc1ccccn1)N1CC(=O)N2[C@@H](CO)[C@@H](c3ccc(C#CCC4CCCC4)cc3)[C@@H]2C1 | 13.2 µM
68 | O=C(Cc1cccnc1)N1CC(=O)N2[C@H](CO)[C@@H](c3ccc(C#CC4CCCCC4)cc3)[C@H]2C1 | 16.4 µM
69 | O=C(Cc1cccnc1)N1CC(=O)N2[C@@H](CO)[C@H](c3ccc(C4=CCCCC4)cc3)[C@@H]2C1 | > 39 µM (inactive)
70 | Cc1nc(OCC(=O)Nc2ccc(Cl)c(Cl)c2)c2ccccc2n1 | > 39 µM (inactive)
71 | O=C(CC1Nc2c3ccccc3nc(=S)n2C1=O)NCCN1CCN(c2cccc(Cl)c2)CC1 (stereo not drawn) | 37.1 µM
72 | COc1ccccc1-c1nc(CN2CCc3c(sc4c3CCCC4)C2c2ccccc2)c(C)o1 (stereo not drawn) | 7.72 µM

Row | SMILES | AC50
73 | Cc1oc(-c2cccc(Cl)c2)nc1CN1CCN(C(=O)Nc2ccc(Cl)cc2)CC1 | 22.4 µM
74 | Cc1ccc(S(=O)(=O)N2CCC3(CC2)NCCN=C3NCc2ccccc2F)cc1C | 22.5 µM
75 | C=CC[C@@H]1CC=C[C@@H](C)N1C(=O)CCn1c(C)cc(C)nc1=O | 26.4 µM
76 | O=C1NCC(=O)N2CCN(C(=O)Nc3cc(Cl)cc(Cl)c3)CC12 (stereo not drawn) | 20.3 µM
77 | COc1ccc(-c2nc(CN(c3ccc(C)cc3)S(=O)(=O)c3cccs3)c(C)o2)cc1OC | 15 µM
78 | CCSc1ccc(-c2sc(-c3ccc(OC)cc3)nc2C)nn1 | > 39 µM (inactive)
79 | CCOc1ccc(-c2nc(CN3CCN(C(=O)Nc4ccccc4)CC3)c(C)o2)cc1 | 16.9 µM
80 | COc1ccc(OCC(=O)N2CCC3(CC2)Nc2ccc(Cl)cc2-n2cccc23)cc1 | > 39 µM (inactive)
81 | CCCCNc1ncnc2c1cnn2-c1ccc(C)cc1C | 28.1 µM
82 | COc1ccc(-c2nc3c(s2)CN(S(=O)(=O)c2ccc(C)c(C)c2)CC3)cc1 | 20.7 µM
83 | CCc1ccc(S(=O)(=O)N2CCC[C@@H]2C(=O)NCCc2csc(-c3ccccc3)n2)cc1 | 21.8 µM
84 | COc1cccc(NC(=O)N2CC(=O)N3[C@H](CO)[C@H](c4ccc(C#CCC5CCCC5)cc4)[C@H]3C2)c1 | 12.8 µM and 10.5 µM
85 | COc1ccc(C#Cc2ccc([C@@H]3[C@@H](CO)N4C(=O)CN(C(=O)NC(C)C)C[C@@H]34)cc2)cc1 | 20.4 µM
86 | CC(C)n1c(C(=O)N2CCN(c3ccncc3)CC2)cc2c1c1ccccc1n2C | 19.9 µM
87 | CCN(C[C@@H]1N[C@@H](CO)[C@H]1c1ccc(-c2ccc(F)cc2)cc1)C(=O)CN(C)C | 21.3 µM
88 | O=C(Nc1cccc(F)c1)N1CCCCN2[C@H](CO)[C@@H](c3ccc(C#Cc4cccnc4)cc3)[C@@H]2C1 | 16 µM
89 | O=C(CC1N=C2c3ccccc3N=C(SCc3cccc(Cl)c3)N2C1=O)NCCc1ccccc1 (stereo not drawn) | 19.3 µM
90 | Clc1ccc(-n2ncc3c(NCc4cccc(Cl)c4)ncnc32)cc1 | 16.9 µM
91 | N#C[C@@H]1[C@@H](c2ccc(C#Cc3cccnc3)cc2)[C@@H](CO)N1C(=O)NC1CCCCC1 | 13.6 µM
92 | COc1ccc(-c2nc(NCC3CCN(Cc4ccc(C)cc4)CC3)c3ccccc3n2)cc1 | 8.66 µM
93 | COc1ccc(-c2nc(NCCCN3CCN(C)CC3)c3ccccc3n2)cc1 | 14.4 µM

From PubChem BioAssay AID1259418 (Broad Institute, 2018)
